# In patent US20150306096A1, “8'-HYDROXY-DIHYDROERGOTAMINE COMPOUNDS AND COMPOSITIONS” (MAP Pharmaceuticals, Inc., priority 2012, published 2015):
# Key:
# Assay in all cases: Radioligand competition binding and kinetics, CHO-K1 membranes
# human 5-HT1A receptor = biological target: T1, human 5-HT1A receptor (Homo sapiens, UniProt P08908); details: 5-HT1A
# T1 construct: purchased Euroscreen; host or cells: CHO-K1
# T1 sequence (P08908 1-422): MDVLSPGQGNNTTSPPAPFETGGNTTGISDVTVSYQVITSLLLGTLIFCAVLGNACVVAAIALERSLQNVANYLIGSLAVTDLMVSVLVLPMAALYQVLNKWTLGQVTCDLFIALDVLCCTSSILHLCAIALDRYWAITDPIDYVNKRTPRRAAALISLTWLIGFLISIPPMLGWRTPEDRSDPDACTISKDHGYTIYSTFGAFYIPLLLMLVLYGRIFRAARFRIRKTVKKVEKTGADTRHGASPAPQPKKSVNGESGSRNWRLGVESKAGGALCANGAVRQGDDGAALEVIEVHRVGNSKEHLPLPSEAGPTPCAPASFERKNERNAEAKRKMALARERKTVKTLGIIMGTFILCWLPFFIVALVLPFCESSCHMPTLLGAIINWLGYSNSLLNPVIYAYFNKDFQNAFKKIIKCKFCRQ
# Protocol: (§1) For kinetics of radioligand competitive binding, serial dilutions were performed from master solution in 100% DMSO to obtain intermediate concentrations 200-fold higher than the concentrations to be tested. Each test sample was diluted 100-fold in the assay buffer and dispensed into the test plate.
# Determination of the Kon constant. Radioligand association kinetics on each receptor were performed by adding in the wells of a 96 well plate 50 μL of radioligand and 50 μL of membrane extracts. The samples were incubated for the times reported in Table 3 below at a temperature optimized for each receptor and filtered over a filter plate. After washing the filters 5 times with 0.5 mL of ice-cold washing buffer, 50 μL of Microscint 20 (Packard) were added to the filters and the plates were incubated 15 min on an orbital shaker and then counted for 1 min/well. This allowed determination of the kobs for each radioligand. […] The different kobs were then plotted against the [radioligand] and the K. was calculated using the following equation: kon=(kobs−koff)[radioligand].
# Determination of the Koff constant. […] The samples were incubated as reported in Table 4 below at a temperature optimized for each receptor until binding equilibrium was reached as determined by the association kinetics experiment. […] After washing the filters 5 times with 0.5 mL of ice-cold washing buffer, 50 μL of Microscint 20 (Packard) were added to the filters and the plates were incubated 15 min on an orbital shaker and then counted for 1 min/well. […]
# (§2) Determination of IC50 and Ki constant for each test compound. […] After washing the filters 5 times with 0.5 mL of ice-cold washing buffer, 50 μL of Microscint 20 (Packard) were added to the filters and the plates were incubated 15 min on an orbital shaker and then counted for 1 min/well. […]
# (§3) Determination of kon and koff constants for each test compound. Each compound was first assessed in a pilot experiment to evaluate its effect on the kinetic binding of each receptor-radioligand pair. […]
# human 5-HT2B receptor = biological target: T2, human 5-HT2B receptor (Homo sapiens, UniProt P41595); details: 5-HT2B
# T2 construct: purchased Euroscreen; host or cells: CHO-K1
# T2 sequence (P41595 whole entry): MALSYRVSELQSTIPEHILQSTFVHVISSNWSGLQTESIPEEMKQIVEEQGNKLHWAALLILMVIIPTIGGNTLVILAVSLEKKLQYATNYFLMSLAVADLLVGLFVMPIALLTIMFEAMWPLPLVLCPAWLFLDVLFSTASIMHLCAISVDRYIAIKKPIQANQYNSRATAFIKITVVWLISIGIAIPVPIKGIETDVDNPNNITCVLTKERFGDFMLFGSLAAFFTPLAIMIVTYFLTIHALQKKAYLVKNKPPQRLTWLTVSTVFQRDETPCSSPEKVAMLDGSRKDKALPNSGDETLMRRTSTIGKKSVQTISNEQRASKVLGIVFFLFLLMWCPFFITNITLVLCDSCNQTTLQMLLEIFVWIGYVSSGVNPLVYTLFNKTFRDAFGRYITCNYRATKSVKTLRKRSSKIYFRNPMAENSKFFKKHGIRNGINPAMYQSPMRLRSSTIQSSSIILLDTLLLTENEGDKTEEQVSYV
# Protocol: as §1
# (§4) Ligand: 5-HT (Sigma, H-9523)
# (§5) Determination of the Kon constant. Radioligand association kinetics on each receptor were performed by adding in the wells of a 96 well plate 50 μL of radioligand and 50 μL of membrane extracts. The samples were incubated for the times reported in Table 3 below at a temperature optimized for each receptor and filtered over a filter plate. After washing the filters 5 times with 0.5 mL of ice-cold washing buffer, 50 μL of Microscint 20 (Packard) were added to the filters and the plates were incubated 15 min on an orbital shaker and then counted for 1 min/well. This allowed determination of the kobs for each radioligand. Association kinetics were performed at 5 different radioligand concentrations optimized for each receptor (see Table 3 below) to determine 5 different kobs. The different kobs were then plotted against the [radioligand] and the K. was calculated using the following equation: kon=(kobs−koff)[radioligand].
# (§6) Determination of the Koff constant. Radioligand dissociation kinetics on each receptor were performed by adding in the wells of a 96 well plate 45 μL of radioligand and 45 μL of membrane extracts. The samples were incubated as reported in Table 4 below at a temperature optimized for each receptor until binding equilibrium was reached as determined by the association kinetics experiment. Then, 100 μL of cold competitor (reference ligand) were added at a 200 fold excess (final concentration) for the times reported in Table 4 at the optimized temperature. The samples were then filtered over a filter plate. After washing the filters 5 times with 0.5 mL of ice-cold washing buffer, 50 μL of Microscint 20 (Packard) were added to the filters and the plates were incubated 15 min on an orbital shaker and then counted for 1 min/well. This allowed determination of the koff for each radioligand.
# as §2, §3
# human 5-HT1D receptor = biological target: T3, human 5-HT1D receptor (Homo sapiens, UniProt P28221); details: 5-HT1D
# T3 construct: purchased Euroscreen; host or cells: CHO-K1
# T3 sequence (P28221 whole entry): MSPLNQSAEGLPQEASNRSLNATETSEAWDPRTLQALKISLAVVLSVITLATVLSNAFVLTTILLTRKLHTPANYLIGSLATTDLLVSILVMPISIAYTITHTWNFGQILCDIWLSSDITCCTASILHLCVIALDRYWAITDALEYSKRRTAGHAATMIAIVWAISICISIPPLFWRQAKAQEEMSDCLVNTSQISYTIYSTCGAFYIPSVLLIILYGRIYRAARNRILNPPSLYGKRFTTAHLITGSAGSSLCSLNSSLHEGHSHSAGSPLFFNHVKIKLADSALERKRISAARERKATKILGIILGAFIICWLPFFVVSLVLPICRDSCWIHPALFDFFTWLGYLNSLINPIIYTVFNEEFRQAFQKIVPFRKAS
# Protocol: as §1
# 5-HT1D Radioligand Binding Assay
# Assay buffer: 50 mM Tris (pH 7.4), 4 mM CaCl2, 0.1% ascorbic acid
# Washing buffer: 50 mM Tris (pH 7.4)
# Membrane: recombinant CHO-K1-5-HT1D membranes thawed on ice and diluted in assay buffer (10 μg/well)
# as §4
# Radioligand: [^3H]-CT (Perkin Elmer, TRK1038, diluted in assay buffer for a final concentration of 0.5 nM) Filter plate: GF/B Unifilter plate (Perkin Elmer, 6005177) presoaked in 0.5% PEI for 2 hours at RT.
# as §5, §6
# Determination of IC50 and Ki constant for each test compound. Radioligand competition binding on each receptor were performed by adding in the wells of a 96 well plate […] of test compound at increasing concentration as reported in Table 5 below, 25 μL of radioligand and 25 μL of membrane extracts. The samples were incubated for 60 min (or 4 hours for a second experiment on 5-HT2B receptors) at a temperature optimized for each receptor and then filtered over a filter plate. After washing the filters 5 times with 0.5 mL of ice-cold washing buffer, 50 μL of Microscint 20 (Packard) were added to the filters and the plates were incubated 15 min on an orbital shaker and then counted for 1 min/well. The test compounds were tested in duplicate at the nanomolar concentrations reported below in Table 5.
# Determination of kon and koff constants for each test compound. Each compound was first assessed in a pilot experiment to evaluate its effect on the kinetic binding of each receptor-radioligand pair. These pilot experiments were performed at on compound concentration and were composed of 10 time-points measurements in duplicate (2, 5, 10, 20, 30, 45, 60, 90, 120 and 150 minutes).
compound,measurement,setting,value
"CNS(=O)(=O)Cc1ccc2[nH]cc(CCN(C)C)c2c1 [Sumatriptan, sumatriptan]",Avg Dissociation half-life,human 5-HT1A receptor,65.4 min
same,Avg Dissociation half-life,human 5-HT2B receptor,22.2 min
same,IC50,"human 5-HT2B receptor; [3H]-Mesulergine, read-out: IC50 from binding assay",19.9 µM
same,Avg Dissociation half-life,human 5-HT1D receptor,5.4 min
